Assay results: ChEMBL document CHEMBL5543108, “Structure-based design and synthesis of BML284 derivatives: A novel class of colchicine-site noncovalent tubulin degradation agents” (Eur J Med Chem, 2024)
pIC50: −log10 of the molar value.

Key:
A2780/Taxol [1] = test: Antitumor activity against human A2780T cells xenografted in mouse model assessed as tumor growth inhibition at 30 mg/kg, ip administered every two days for 18 days relative to control; assay type: functional; conditions: 432 h, time 18 day, read-out: TGI
A549/TR = test: Antiproliferative activity against paclitaxel resistant human A549T cells assessed as reduction in cell viability measured after 72 hrs; assay type: functional, cell-based
MCF7 = test: cells; conditions: Homo sapiens, MCF7, 72 h
Description: Antiproliferative activity against human MCF7 cells assessed as reduction in cell viability measured after 72 hrs

K562 = test: Antiproliferative activity against human K562 cells assessed as reduction in cell viability measured after 72 hrs; assay type: functional, cell-based; conditions: K562, 72 h
A2780S = test: Antitumor activity against human A2780S cells xenografted in mouse model assessed as tumor growth inhibition at 30 mg/kg, ip administered every two days for 12 days relative to control; assay type: functional; conditions: 288 h, time 12 day, read-out: TGI
MOLM-13 = test: Antiproliferative activity against human MOLM-13 cells assessed as reduction in cell viability measured after 72 hrs; assay type: functional, cell-based; conditions: MOLM-13, 72 h
A2780/Taxol [2] = test: Antiproliferative activity against human A2780T cells assessed as reduction in cell viability measured after 72 hrs; assay type: functional, cell-based

pIC50 (A549/TR): 6.08
pIC50 (MCF7): 7.50
pIC50 (K562): 7.82
pIC50 (MOLM-13): 8.40
pIC50 (A2780/Taxol [2]): 4.25
Structure (SMILES): CC(=O)O[C@H]1C(=O)[C@@]2(C)[C@H]([C@H](OC(=O)c3ccccc3)[C@]3(O)C[C@H](OC(=O)[C@H](O)[C@@H](NC(=O)c4ccccc4)c4ccccc4)C(C)=C1C3(C)C)[C@]1(OC(C)=O)CO[C@@H]1C[C@@H]2O [PACLITAXEL]
inhibition in vivo at 30 mg/kg (A2780/Taxol [1]): 23.2%
inhibition in vivo at 30 mg/kg (A2780S): 74.6%
